Results reported in US20140005163A1 (NOVARTIS AG, priority 2010, published 2014).
Converted amounts (≈) assume the structure as drawn.

Columns and labels:
[1] = Solubility at pH 6.8; assay type: physicochemical; conditions: pH 6.8, aqueous buffer, thermodynamic from solid; read-out: solubility
Method in brief: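 Following the procedure of Zhou et al. (2007), compound solubility was determined at pH 6.8.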

[2] = tested on: PKB Ser473 phosphorylation in Rat1-myr-HA-p110 delta cells; assay: Reverse protein array assay, PKB Ser473 phosphorylation in Rat1-myr-p110 delta cells; assay type: cell-based; conditions: read-out: p-PKB IC50
Method in brief: (§1)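 Compound exposure lasted 30 min in Rat1 cells bearing membrane-targeted HA-p110 isoforms, using 8 serial concentrations. Arrayed lysates, each spotted at four dilutions, gave relative fluorescence signals for phospho-Ser473 PKB.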

[3] = biological target: T1, mTOR (Homo sapiens, UniProt P42345); assay: Biochemical assay for m-TOR by TR-FRET; conditions: 8 μM ATP, 400 nM GFP-4EBP1, 0.5 nM mTOR
T1 construct: purchased Invitrogen Corporation (Carlsbad/CA, USA) PV4753
T1 sequence (P42345 1360-2549 limits assumed): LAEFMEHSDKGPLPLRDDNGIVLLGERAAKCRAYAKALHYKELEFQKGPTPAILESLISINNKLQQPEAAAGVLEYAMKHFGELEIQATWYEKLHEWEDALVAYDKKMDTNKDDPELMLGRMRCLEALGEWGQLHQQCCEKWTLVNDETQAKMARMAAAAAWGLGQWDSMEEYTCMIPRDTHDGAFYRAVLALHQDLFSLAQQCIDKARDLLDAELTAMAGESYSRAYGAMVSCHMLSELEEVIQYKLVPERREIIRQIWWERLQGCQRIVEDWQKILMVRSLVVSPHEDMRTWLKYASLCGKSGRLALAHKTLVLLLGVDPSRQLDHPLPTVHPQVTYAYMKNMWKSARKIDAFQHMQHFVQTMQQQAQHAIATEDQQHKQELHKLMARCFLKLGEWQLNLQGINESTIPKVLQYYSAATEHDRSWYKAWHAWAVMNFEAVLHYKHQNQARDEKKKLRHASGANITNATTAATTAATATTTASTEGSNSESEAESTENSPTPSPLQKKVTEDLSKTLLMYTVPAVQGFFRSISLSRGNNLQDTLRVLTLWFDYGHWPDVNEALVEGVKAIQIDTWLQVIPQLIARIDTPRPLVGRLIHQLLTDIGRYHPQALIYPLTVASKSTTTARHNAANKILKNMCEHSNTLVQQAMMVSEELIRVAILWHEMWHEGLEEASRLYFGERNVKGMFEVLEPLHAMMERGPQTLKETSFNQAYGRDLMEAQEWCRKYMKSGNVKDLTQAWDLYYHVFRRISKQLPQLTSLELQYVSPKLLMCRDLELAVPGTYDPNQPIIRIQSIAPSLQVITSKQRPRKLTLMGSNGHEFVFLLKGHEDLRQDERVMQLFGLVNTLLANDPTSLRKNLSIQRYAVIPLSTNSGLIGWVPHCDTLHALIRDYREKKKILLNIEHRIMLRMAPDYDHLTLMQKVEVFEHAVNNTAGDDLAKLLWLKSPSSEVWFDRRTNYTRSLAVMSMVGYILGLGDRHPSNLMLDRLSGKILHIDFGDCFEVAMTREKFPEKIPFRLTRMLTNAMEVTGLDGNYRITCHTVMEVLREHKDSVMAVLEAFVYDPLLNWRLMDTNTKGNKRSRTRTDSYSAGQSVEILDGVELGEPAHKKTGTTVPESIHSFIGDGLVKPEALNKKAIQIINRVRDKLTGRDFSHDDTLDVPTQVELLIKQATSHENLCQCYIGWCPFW
Method in brief: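 Enzyme 0.5 nM, GFP-4EBP1 400 nM, ATP 8 μM (all final); 50 mM HEPES pH 7.5, 10 mM MnCl2, 1 mM DTT; rt. Detection: Tb-α-p4EBP1 [pT46] 0.5 nM in EDTA, TR-FRET, 15 min. Reference compound on every plate, 16-point duplicate dilutions.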

[4] = tested on: PKB Ser473 phosphorylation in Rat1-myr-HA-p110 alpha cells; assay: Reverse protein array assay, PKB Ser473 phosphorylation in Rat1-myr-p110 alpha cells; assay type: cell-based; conditions: 0.5 h, pAkt Ser473, 30 minutes compound incubation, read-out: p-PKB IC50
Method in brief: as §1

[5] = tested on: S6 Ribosomal Protein phosphorylation Ser235/236 in TSC1 null mouse embryo fibroblast (MEF) cells; assay: Reverse protein array assay, S6 Ribosomal Protein phosphorylation Ser235/236 in TSC1 null MEF cells; assay type: cell-based; conditions: 1 h, pS6 ribosomal protein Ser235/236, 60 minutes incubation, read-out: p-S6 IC50
Method in brief: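 TSC1−/− MEFs, seeded and held ≥20 h at 37 °C/5% CO2, were exposed to 8-step serial compound dilutions (0.02% DMSO final; DMSO vehicle control) for 60 min at 37 °C. Cells were then lysed on ice for 10 min and lysates spotted onto reverse protein array chips.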

[6] = tested on: PKB Ser473 phosphorylation in Rat1-myr-HA-p110 beta cells; assay: Reverse protein array assay, PKB Ser473 phosphorylation in Rat1-myr-p110 beta cells; assay type: cell-based; conditions: 0.5 h, pAkt Ser473, 30 minutes incubation, read-out: p-PKB IC50
Method in brief: as §1

solubility [1] [mg/mL]	IC50 [2] [µM]	IC50 [3] [µM]	IC50 [4] [µM]	IC50 [6] [µM]	Compound	IC50 [5] [µM]
0.01 (≈ 22.5 µM)	0.106	0.022	0.007	0.014	CCOc1ccc(-c2ccc3ncc4c(c3c2)n(-c2cn(CCO)nc2C)c(=O)n4C)cn1 [Example 103.2, 8-(6-Ethoxy-pyridin-3-yl)-1-[1-(2-hydroxy-ethyl)-3-methyl-1H-pyrazol-4-yl]-3-methyl-1,3-dihydro-imidazo[4,5-c]quinolin-2-one]	0.003
0.141 (≈ 282 µM)	0.066	0.009	0.011	0.016	CCOc1ccc(-c2ccc3ncc4c(c3c2)n(-c2cn(CC(=O)N(C)CC)nc2C)c(=O)n4C)cn1 [Example 136, 2-{4-[8-(6-Ethoxy-pyridin-3-yl)-3-methyl-2-oxo-2,3-dihydro-imidazo[4,5-c]quinolin-1-yl]-3-methyl-pyrazol-1-yl}-N-ethyl-N-methyl-acetamide]	0.003
0.427 (≈ 881 µM)	0.595	0.324	0.324	0.428	COCCN(C)C(=O)Cn1cc(-n2c(=O)n(C)c3cnc4ccc(-c5ccccc5)cc4c32)c(C)n1 [Example 137, N-(2-Methoxy-ethyl)-N-methyl-2-[3-methyl-4-(3-methyl-2-oxo-8-phenyl-2,3-dihydro-imidazo[4,5-c]quinolin-1-yl)-pyrazol-1-yl]-acetamide]	0.009
0.026 (≈ 52.3 µM)	0.058	0.01	0.036	0.038	CCOc1ccc(-c2ccc3ncc4c(c3c2)n(-c2cn(CC(=O)N3CCC3)nc2C)c(=O)n4C)cn1 [Example 138, 1-[1-(2-Azetidin-1-yl-2-oxo-ethyl)-3-methyl-1H-pyrazol-4-yl]-8-(6-ethoxy-pyridin-3-yl)-3-methyl-1,3-dihydro-imidazo[4,5-c]quinolin-2-one]	0.003
> 0.484	0.07	0.021	0.052	0.039	CCN(CC)C(=O)Cn1cc(-n2c(=O)n(C)c3cnc4ccc(-c5ccc(C)nc5)cc4c32)c(C)n1 [Example 139, N,N-Diethyl-2-{3-methyl-4-[3-methyl-8-(6-methyl-pyridin-3-yl)-2-oxo-2,3-dihydro-imidazo[4,5-c]quinolin-1-yl]-pyrazol-1-yl}-acetamide]	0.004
0.044 (≈ 94.1 µM)	0.011	0.003	< 0.005	< 0.005	CNc1ncc(-c2ccc3ncc4c(c3c2)n(-c2cn(C)nc2C)c(=O)n4C)cc1C(F)(F)F [Example 144.3, 1-(1,3-Dimethyl-1H-pyrazol-4-yl)-3-methyl-8-(6-methylamino-5-trifluoromethyl-pyridin-3-yl)-1,3-dihydro-imidazo[4,5-c]quinolin-2-one]	< 0.0005
> 0.434	0.024	< 0.003	< 0.005	0.009	CNc1ncc(-c2ccc3ncc4c(c3c2)n(-c2cn(C)nc2C)c(=O)n4C)cc1Cl [Example 146.1, 8-(5-Chloro-6-methylamino-pyridin-3-yl)-1-(1,3-dimethyl-1H-pyrazol-4-yl)-3-methyl-1,3-dihydro-imidazo[4,5-c]quinolin-2-one]	< 0.0005
0.006 (≈ 13.4 µM)	0.018	0.02	< 0.005	0.011	CCn1cc(-n2c(=O)n(C)c3cnc4ccc(-c5cnc(NC)c(Cl)c5)cc4c32)c(C)n1 [Example 146.2, 8-(5-Chloro-6-methylamino-pyridin-3-yl)-1-(1-ethyl-3-methyl-1H-pyrazol-4-yl)-3-methyl-1,3-dihydro-imidazo[4,5-c]quinolin-2-one]	0.002
